Data published in ChEMBL document CHEMBL3407482, “Synthesis and assessment of the antioxidant and antitumor properties of asymmetric curcumin analogues” (Eur J Med Chem, 2015).

Columns and labels:
[1] = Antiproliferative activity against human PC3 cells after 72 hrs by MTT assay; type: functional, cell-based; conditions: PC-3, 72 h
PC-3 = assay: Ratio of curcumin IC50 to compound IC50 for human PC3 cells after 72 hrs by MTT assay; type: functional
[2] = Antiproliferative activity against human SMMC7721 cells after 72 hrs by MTT assay; type: functional, cell-based; conditions: SMMC-7721, 72 h
[3] = Drug metabolism in rat plasma after 24 hrs by HPLC analysis; type: ADME, cell-free; conditions: read-out: Drug metabolism
[4] = Antioxidant activity assessed as ROO. radical scavenging activity by TRAP assay; type: physicochemical
MCF7 [5] = assay: Ratio of curcumin IC50 to compound IC50 for human MCF7 cells after 72 hrs by MTT assay; type: functional
[6] = Antioxidant activity assessed as ABTS radical scavenging activity by spectrophotometry; type: physicochemical
[7] = Antioxidant activity assessed as DPPH radical scavenging activity by spectrophotometry; type: physicochemical
[8] = Antioxidant activity assessed as superoxide radical scavenging activity after 5 mins by nitrotetrazolium blue chloride assay; type: physicochemical
SMMC-7721 = assay: Ratio of curcumin IC50 to compound IC50 for human SMMC7721 cells after 72 hrs by MTT assay; type: functional
MCF7 [9] = assay: Antiproliferative activity against human MCF7 cells after 72 hrs by MTT assay; type: functional, cell-based; conditions: MCF7, 72 h
Plasma = assay: Stability in rat plasma after 24 hrs by HPLC analysis; type: ADME, cell-free

SMILES | IC50 [1] [µM] | Ratio IC50 (PC-3) | IC50 [2] [µM] | metabolised at 24 h [3] [%] | IC50 [4] [µM] | Ratio IC50 (MCF7 [5]) | IC50 [6] [µM] | IC50 [7] [µM] | IC50 [8] [µM] | Ratio IC50 (SMMC-7721) | IC50 (MCF7 [9]) [µM] | Stability (Plasma)
COc1cc(/C=C/C(=O)/C=C/c2ccc(O)c(OC)c2)ccc1O | 36.3 | 1.6 | 18.4 | 11.9 | 44.5 | 1.6 | 30.2 | 9.24 | 72.6 | 1.6 | 22.5 | 
CCOc1cc(/C=C/C(=O)/C=C/c2ccc(O)c(OCC)c2)ccc1O | 51.4 |  | 19 |  | 128 |  | 128 | 50.1 | 193 |  | 26.6 | 
COc1cc(/C=C/C(=O)/C=C/c2ccc(C)c(C)c2)ccc1O |  |  | 23.4 |  | 136 |  | 103 | 41.5 | 178 |  | 21.7 | 
COc1ccc(/C=C/C(=O)/C=C/c2cc(OC)c(OC)c(OC)c2)cc1O | 34.9 |  | 11.5 |  | 118 |  | 99.5 | 34.4 | 164 |  | 40.3 | 
COc1ccc(/C=C/C(=O)/C=C/c2ccc(O)c(OC)c2)cc1O | 61.3 |  | 21.6 |  | 123 |  | 105 | 46.3 | 169 |  | 56.5 | 
COc1cc(/C=C/C(=O)/C=C/c2cc(OC)c(O)c(OC)c2)ccc1O | 70.2 |  | 15.1 |  | 96.4 |  | 85.7 | 28.7 | 124 |  | 28.9 | 
CCOc1cc(/C=C/C(=O)/C=C/c2ccc(O)c(OC)c2)ccc1O | 82.4 |  | 27.3 |  | 97.2 |  | 80.6 | 31.6 | 122 |  | 41.9 | Unstable
COc1ccc(O)c(/C=C/C(=O)/C=C/c2ccc(C)c(C)c2)c1 | 45.5 |  | 23.4 |  | 286 |  | 132 | 203 | 207 |  | 33.3 | Unstable
COc1ccc(O)c(/C=C/C(=O)/C=C/c2ccc(OC)c(OC)c2)c1 | 31.6 |  | 20.8 |  | 182 |  | 292 | 94.2 | 231 |  | 22.2 | Unstable
COc1ccc(O)c(/C=C/C(=O)/C=C/c2cc(OC)c(OC)c(OC)c2)c1 | 39.9 |  | 25.3 |  | 184 |  | 114 | 94.6 | 214 |  | 40.7 | 
COc1cc(/C=C/C(=O)/C=C/c2ccc(C)c(C)c2)cc(OC)c1O | 25.3 |  | 13.6 |  | 113 |  | 113 | 32.6 | 156 |  | 52.8 | 
COc1ccc(/C=C/C(=O)/C=C/c2cc(OC)c(O)c(OC)c2)cc1OC | 36.9 |  | 24.1 |  | 47.8 |  | 36.3 | 13.5 | 80.9 |  | 9.11 | 
COc1ccc(/C=C/C(=O)/C=C/c2ccc(OC)c(OC)c2)cc1OC | 21.4 |  | 14.4 |  | > 5630 |  | > 5630 | > 5630 | > 5630 |  | 39.9 | 
COc1cc(/C=C/C(=O)/C=C/c2cc(OC)c(OC)c(OC)c2)cc(OC)c1OC | 42.1 |  | 16.6 |  | > 4820 |  | > 4820 | > 4820 | > 4820 |  | 13.9 | Unstable
COc1ccc(/C=C/C(=O)/C=C/c2ccc(OC)c(O)c2)cc1O | 97.3 |  | 9.68 |  | 193 |  | 177 | 92 | 204 |  | 70.4 | 
COc1cc(/C=C/C(=O)/C=C/c2cc(OC)c(OC)c(OC)c2)cc(OC)c1O | 23.7 |  | 10.9 |  | 70 |  | 75.1 | 28.1 | 117 |  | 43.6 | 
COc1ccc(/C=C/C(=O)/C=C/c2ccc(OC)c(OC)c2)cc1O | 53.1 |  | 39.4 |  | 82 |  | 91.3 | 19.7 | 119 |  | 67.1 | 
O=C1O[C@H]([C@@H](O)CO)C(O)=C1O [ASCORBIC ACID] |  |  |  |  | 102 |  | 105 | 45.4 | 167 |  |  | 
COc1cc(/C=C/C(=O)CC(=O)/C=C/c2ccc(O)c(OC)c2)ccc1O [CURCUMIN] | 59 |  | 39.4 | 55.3 | 54.4 |  | 48.6 | 13.5 | 89.8 |  | 70.2 | 
